Data reported in US4620014A, “2-furylbutyrolactones and methods for using same” (priority 1983, dated 1986).
Where two headings read alike, the source gives them in different places.

Key:
C57BL/6 mice = conditions: 10 mice per dose
Procedure: Single dose LD50 in C57BL/6 mice for Cpd. 1 is determined following the method of Spearman and Karber described in Basic Exercises in Immunochemistry, 1979. Briefly, 0.5 ml of each dose is given to each of ten mice. The survivors are counted after 3 days and the LD50 is calculated using the following formula: [formula] where D=fold diferences between doses, R=total number dead, and N=total number of animals tested.

[1] = tested on: spleen lymphocytes of BDF1 mice; conditions: 7 days
Procedure: (§1) The purpose of this assay is to challenge lymphocytes in microcultures with one or more polyclonal mitogens at concentrations that will induce mitogenesis within 72 hours of stimulation.
(§2) In the mouse model, spleens are removed from different strains of mice and the spleen cells are teased free and suspended in RPMI-1640 tissue culture medium at a concentration of usually 1×10^7 ml. These cells are dispensed at a concentration of 5.0×10^5 cells per microculture well in a 96 well flat bottom 96 well tissue culture plate. All testing of the compounds of this invention or mitogens are done in replicates of 10. The cells are then treated with PHA, Con-A, specific antigens, or buffer only. If in vitro testing is done, varying concentrations of the compounds of this invention or buffer only are added to the cells as well. After treatment with the mitogens and/or compounds of this invention, the cells are incubated for 72 hours. The response of these cells to mitogens and/or the compounds of this invention is assessed using ^14 C-thymidine labeling on the fourth day at a concentration of 0.01 μCi/well. The labeled cells are harvested using a lymphocyte harvestor and placed onto fibrous paper discs. A scintillation cocktail is added to vials contaning the discs and the results are obtained using a LKB-liquid scintillation counter (Model 1216/Rackbeta II). The data is expressed as a ratio of the cpm of the mitogen stimulated group to the control (non-mitogen) treated group=lymphocyte stimulation index (LSI).
(§3) The lymphocyte stimulation assay may be performed directly on spleen cells obtained from various strains of mice not treated with the compounds of this invention or on lymphocytes obtained from […]. […] Alternatively, the mice may be treated in vivo with the compounds of this invention by intraperitoneal multi-dose schedules, followed by sacrifice and harvesting spleen lymphocytes. These cells are then tested for their response to polyclonal mitogens or specific antigens used to immunize the mice. In this sytem however, no additional compound is added to the in vitro lymphocyte stimulation assay system.
Two strains of mice, C57BL/6 and BDF1 are treated for seven days with i.p. administration of either 25, 50, 100, 200, or 400 mg/kg of Cpd. 1 or just buffer. This is followed on the eighth day by a lymphocyte stimulation assay.

[2] = tested on: spleen lymphocytes of SJL/J mice
Procedure: as §1, §2, §3
Three month old mice of the SJL/J strain, which are T-cell deficient, are treated with i.p. administration of 100, 200, or 400 mg/kg of Cpd. 1 or just buffer for four days. This is followed by a lymphocyte stimulation assay.
An in vivo lymphocyte stimulation assay was performed on SJL/J mice of different ages, either 2, 5, or 10 months. The mice received i.p. injections of either 100 mg/kg of Cpd. 1 or just buffer.

[3] = tested on: antibody response to bovine serum albumin (BSA); conditions: for stimulation of antibody response to BSA: day 13
From the text: (§4) The effect of the compounds of this invention on the immune response to specific antigens involves immunization of mice with specific anitgens such as bovine serum albumin (BSA) or keyhole limpet hemocyanin (KLH). Following immunization, it is possible to assess the cell-mediated or humoral (antibody) immune response to these antigens by various methods:
(§5) (2) Antibody response to soluble antigens such as BSA or KLH can be quantitated using a micro-ELISA solid phase heterogeneous immunoassay. The assay can be designed to quantitate class specific immunoglobulins (i.e., IgG or IgM).
(§6) The cut-off for the titer was the highest dilution of mouse serum yielding an O.D.≤0.1 when read on the MR-600 Dynatech micro-ELISA reader.
Mice of the C57BL/6 strain are given i.p. injections of either 50, 100, 200 or 400 mg/kg of Cpd. 1 or buffer for twelve days (days 1-12). An antigen, bovine serum albumin (BSA), is administered intraperitoneally with Freund's Complete Adjuvant (FCA) on days 1, 7 and 14. Blood samples are taken for assay of the antibody response on days 0, 5, 13, and 19.

[4] = tested on: antibody response to keyhole limpet hemocyanin (KLH)
From the text: as §4, §5, §6
Mice of the C57BL/6 strain are given i.p. injections of either 50, 100, 200 or 400 mg/kg of Cpd. 1 or buffer for ten days (days 1-10). An antigen, keyhole limpet hemocyanin (KLH), is administered intraperitoneally with Freund's Complete Adjuvant (FCA) on days 1, 7, and 13. Blood samples are taken for assay of the antibody response on days 0, 5, 12, and 17. Spleens are removed, lymphocytes isolated and a lymphocyte stimulation assay with PHA, Con-A or KLH antigen as the mitogens is performed on day 17 of the experiment.

[5] = 100 mg/kg i.p., four days, three month old mice
[6] = 200 mg/kg i.p., four days, three month old mice
[7] = 400 mg/kg i.p., four days, three month old mice

Cc1ccc(C2(O)C(=O)OC3C(O)COC32O)o1.Cc1ccc(C2(O)C(=O)OC3C(O)COC32O)o1.O=C1CCC(=O)O1 (centres unmarked) [Cpd. 1]
Number Dead on Day 3 (C57BL/6 mice; single i.p. 1,000 mg/kg): 0
Number Dead on Day 3 (C57BL/6 mice; single i.p. 2,000 mg/kg): 0
Number Dead on Day 3 (C57BL/6 mice; single i.p. 4,000 mg/kg): 7
Number Dead on Day 3 (C57BL/6 mice; single i.p. 8,000 mg/kg): 10
Number Dead on Day 3 (C57BL/6 mice; single i.p. 16,000 mg/kg): 10
Con-A response ([1]; 400 mg/kg i.p.): slight suppression of the Con-A response
PHA response ([1]; 400 mg/kg i.p.): strong suppression of the PHA response
T-lymphocyte proliferation, PHA ([1]; 50 and 100 mg/kg i.p.): stimulation of T-lymphocyte proliferation
Con-A response ([1]; between 50 and 100 mg/kg i.p.): significantly increased
Lymphocyte Stimulation Index, Con-A ([2]; 100 mg/kg i.p., age 2 months): 167
Lymphocyte Stimulation Index, Control (no mitogen) ([2]; 100 mg/kg i.p., age 2 months): 2.3
Lymphocyte Stimulation Index, PHA ([2]; 100 mg/kg i.p., age 2 months): 32.6
Lymphocyte Stimulation Index, Con-A ([2]; 100 mg/kg i.p., age 5 months): 12.9
Lymphocyte Stimulation Index, Control (no mitogen) ([2]; 100 mg/kg i.p., age 5 months): 1.9
Lymphocyte Stimulation Index, PHA ([2]; 100 mg/kg i.p., age 5 months): 1.16
Lymphocyte Stimulation Index, Con-A ([2]; 100 mg/kg i.p., age 10 months): 14.5
Lymphocyte Stimulation Index, Control (no mitogen) ([2]; 100 mg/kg i.p., age 10 months): 2.1
Lymphocyte Stimulation Index, PHA ([2]; 100 mg/kg i.p., age 10 months): 9.18
Lymphocyte Stimulation Index, Con-A [2, 5]: 5.01
Lymphocyte Stimulation Index, Control (no mitogen) [2, 5]: 0.573
Lymphocyte Stimulation Index, PHA [2, 5]: 1.85
Con-A response ([2]; 100 mg/kg, 2 months of age): increased
PHA response ([2]; 100 mg/kg, 2 months of age): decreased
mitogenesis response to PHA and Con-A ([2]; 100 mg/kg, 5 months of age): depressed mitogenesis response
PHA and Con-A mitogenic response ([2]; 100 mg/kg, ten month old): significant stimulation
Lymphocyte Stimulation Index, Con-A [2, 6]: 4.57
Lymphocyte Stimulation Index, Control (no mitogen) [2, 6]: 0.732
Lymphocyte Stimulation Index, PHA [2, 6]: 1.79
Lymphocyte Stimulation Index, Con-A [2, 7]: 3.30
Lymphocyte Stimulation Index, Control (no mitogen) [2, 7]: 0.693
Lymphocyte Stimulation Index, PHA [2, 7]: 2.31
Micro-ELISA Titer ([3]; 50 mg/kg i.p., day 5): N/R
Micro-ELISA Titer ([3]; 50 mg/kg i.p., prebleed): N/R
antibody titer over the control ([3]; 50 mg/kg, day 19): slight increase
Micro-ELISA Titer ([3]; 100 mg/kg i.p., day 5): N/R
Micro-ELISA Titer ([3]; 100 mg/kg i.p., prebleed): N/R
Micro-ELISA Titer ([3]; 200 mg/kg i.p., day 5): N/R
Micro-ELISA Titer ([3]; 200 mg/kg i.p., prebleed): N/R
Micro-ELISA Titer ([3]; 400 mg/kg i.p., day 5): N/R
Micro-ELISA Titer ([3]; 400 mg/kg i.p., prebleed): N/R
stimulation of antibody response to BSA ([3]; 50 and 100 mg/kg): slight amount of stimulation
increase of antibody response to BSA over controls ([3]; 100 and 200 mg/kg, day 19): 16 fold
stimulation of antibody response to BSA ([3]; 200 and 400 mg/kg): significant (four-fold) stimulation
Micro-ELISA Titer ([4]; 50 mg/kg i.p., day 5): N/R
Micro-ELISA Titer ([4]; 50 mg/kg i.p., prebleed): N/R
Micro-ELISA Titer ([4]; 100 mg/kg i.p., day 5): N/R
Micro-ELISA Titer ([4]; 100 mg/kg i.p., prebleed): N/R
Micro-ELISA Titer ([4]; 200 mg/kg i.p., day 5): N/R
Micro-ELISA Titer ([4]; 200 mg/kg i.p., prebleed): N/R
Micro-ELISA Titer ([4]; 400 mg/kg i.p., day 5): N/R
Micro-ELISA Titer ([4]; 400 mg/kg i.p., prebleed): N/R
stimulation of antibody response to KLH over control ([4]; 200 and 400 mg/kg, day 12): significant stimulation (four-fold increases)
increase of antibody response to KLH over untreated antigen-sensitized controls ([4]; 200 and 400 mg/kg, day 17): eight-fold increase
